Activity calls are given as the source filed them.
Experiments:
[1] = target: Adenosylmethionine-8-amino-7-oxononanoate aminotransferase (Mycobacterium tuberculosis, UniProt P9WQ81); experiment: Mycobacterium tuberculosis BioA enzyme inhibitor Measured in Biochemical System Using Plate Reader - 2163-02_Inhibitor_Dose_CherryPick_Activity.; type: functional, Mycobacterium tuberculosis UT205
[2] = target: FAD-linked sulfhydryl oxidase ALR (Homo sapiens, UniProt P55789); experiment: ALR-catalysed DTT oxidation blockers – biochemical, H2O2 detection, luminescence, cherry-pick, dose response (AID 493248)
Chain of FAD-linked sulfhydryl oxidase ALR (P55789 whole entry): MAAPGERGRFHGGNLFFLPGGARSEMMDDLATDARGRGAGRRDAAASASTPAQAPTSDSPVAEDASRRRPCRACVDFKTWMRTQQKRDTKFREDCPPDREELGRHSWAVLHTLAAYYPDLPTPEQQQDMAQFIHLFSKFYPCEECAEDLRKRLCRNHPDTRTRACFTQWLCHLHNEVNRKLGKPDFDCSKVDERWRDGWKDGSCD

[3] = viability of PTEN-deleted HCT116 cells – cell-based, HCT116 PTEN knockout, dose response (AID 1047); type: functional;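 also: HCT116 colon tumor cells with PTEN knocked out; cells exposed to compound for 60 hours before readout; potency for loss of cell viability measured by luminescence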
[4] = viability of HCT116 lacking mutant beta-catenin – cell-based, human colon tumor, dose response (AID 1045); type: functional;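 also: HCT116 colon tumor cells with beta catenin knocked out; cells exposed to compound for 60 hours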
Phospholipase A2 = Phospholipase A2 (Homo sapiens, UniProt P04054); type: functional;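 also: confirmatory dose-response counterscreen on phospholipase A2, testing hits that came from an ultra-high-throughput screen for ATG4B inhibitors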
Chain of Phospholipase A2 (P04054 whole entry): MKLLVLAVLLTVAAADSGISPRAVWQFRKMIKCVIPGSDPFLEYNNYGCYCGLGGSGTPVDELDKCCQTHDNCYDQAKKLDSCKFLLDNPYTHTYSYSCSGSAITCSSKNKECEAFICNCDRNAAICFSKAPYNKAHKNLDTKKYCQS

Cysteine protease ATG4B = target: T1, Cysteine protease ATG4B (Homo sapiens, UniProt Q9Y4P1); type: functional;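 also: Fluorescence-based dose-response confirmation assay measuring inhibition of ATG4B activity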
T1 sequence (Q9Y4P1 whole entry): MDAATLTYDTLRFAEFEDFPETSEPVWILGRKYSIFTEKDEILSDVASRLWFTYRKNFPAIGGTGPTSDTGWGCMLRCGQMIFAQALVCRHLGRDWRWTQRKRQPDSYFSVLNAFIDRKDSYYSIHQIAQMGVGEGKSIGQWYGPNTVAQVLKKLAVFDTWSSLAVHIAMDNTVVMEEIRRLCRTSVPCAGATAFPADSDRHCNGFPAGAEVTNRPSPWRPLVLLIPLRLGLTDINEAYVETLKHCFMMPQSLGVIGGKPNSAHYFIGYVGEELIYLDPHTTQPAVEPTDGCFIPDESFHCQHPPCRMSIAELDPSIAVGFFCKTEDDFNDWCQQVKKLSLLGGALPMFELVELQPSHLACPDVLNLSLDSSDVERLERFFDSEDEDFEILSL

[5] = viability of uninfected HEp-2 cells – cell-based, HTS, cytotoxicity control for RSV inhibitor project, dose response (AID 2410); type: functional; details: human respiratory syncytial virus
[6] = target: DNA (cytosine-5)-methyltransferase 1 (Homo sapiens, UniProt P26358); experiment: inhibition of DNA methylation by DNMT1 – biochemical, fluorescent molecular beacon, confirmation (AID 602386); type: functional
Chain of DNA (cytosine-5)-methyltransferase 1 (P26358 whole entry): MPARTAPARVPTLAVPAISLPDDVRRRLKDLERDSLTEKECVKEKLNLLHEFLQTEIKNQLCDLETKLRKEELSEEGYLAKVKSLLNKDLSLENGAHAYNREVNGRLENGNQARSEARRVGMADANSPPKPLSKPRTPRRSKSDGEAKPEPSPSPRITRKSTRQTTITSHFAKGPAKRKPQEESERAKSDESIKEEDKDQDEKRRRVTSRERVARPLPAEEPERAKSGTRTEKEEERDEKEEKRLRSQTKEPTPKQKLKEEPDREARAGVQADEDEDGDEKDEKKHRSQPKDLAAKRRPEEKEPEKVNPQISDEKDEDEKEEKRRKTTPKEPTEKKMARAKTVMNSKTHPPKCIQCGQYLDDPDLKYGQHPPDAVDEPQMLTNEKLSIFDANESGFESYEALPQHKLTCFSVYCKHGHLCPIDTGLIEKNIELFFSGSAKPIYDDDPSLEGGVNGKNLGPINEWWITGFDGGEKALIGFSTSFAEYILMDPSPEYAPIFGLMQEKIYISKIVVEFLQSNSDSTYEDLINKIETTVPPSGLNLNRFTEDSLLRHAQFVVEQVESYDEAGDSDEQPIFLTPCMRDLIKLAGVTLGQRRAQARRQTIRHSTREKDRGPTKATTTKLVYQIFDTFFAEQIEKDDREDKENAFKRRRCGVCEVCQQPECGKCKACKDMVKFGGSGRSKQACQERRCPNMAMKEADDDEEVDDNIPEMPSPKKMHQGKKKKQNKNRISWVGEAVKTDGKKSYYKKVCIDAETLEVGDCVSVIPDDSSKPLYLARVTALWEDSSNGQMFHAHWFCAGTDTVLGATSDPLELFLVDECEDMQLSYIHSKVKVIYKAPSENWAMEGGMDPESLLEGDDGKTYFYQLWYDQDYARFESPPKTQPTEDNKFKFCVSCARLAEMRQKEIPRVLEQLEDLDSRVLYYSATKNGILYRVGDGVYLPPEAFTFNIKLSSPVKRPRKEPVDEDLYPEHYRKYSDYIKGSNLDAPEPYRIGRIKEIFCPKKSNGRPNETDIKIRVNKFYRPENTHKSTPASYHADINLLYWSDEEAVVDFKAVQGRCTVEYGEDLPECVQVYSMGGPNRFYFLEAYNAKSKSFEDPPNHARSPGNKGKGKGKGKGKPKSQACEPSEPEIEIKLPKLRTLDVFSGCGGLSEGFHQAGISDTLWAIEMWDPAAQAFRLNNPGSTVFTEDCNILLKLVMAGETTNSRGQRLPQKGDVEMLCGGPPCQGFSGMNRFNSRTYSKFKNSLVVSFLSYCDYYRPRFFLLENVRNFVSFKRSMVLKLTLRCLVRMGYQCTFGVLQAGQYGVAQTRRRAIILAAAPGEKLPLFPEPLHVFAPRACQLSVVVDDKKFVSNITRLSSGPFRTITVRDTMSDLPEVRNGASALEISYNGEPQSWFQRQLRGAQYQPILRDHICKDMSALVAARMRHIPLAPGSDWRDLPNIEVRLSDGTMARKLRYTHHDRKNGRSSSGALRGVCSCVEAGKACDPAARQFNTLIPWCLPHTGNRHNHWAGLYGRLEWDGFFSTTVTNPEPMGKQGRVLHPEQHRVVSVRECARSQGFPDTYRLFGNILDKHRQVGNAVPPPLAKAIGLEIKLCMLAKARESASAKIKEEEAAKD

Streptococcus = experiment: GAS UMAA2166 growth inhibition – luminescence, BacTiterGlo, counter-screen for streptokinase expression inhibitor project, dose response (AID 1915); type: functional, organism-based;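 also: potency for reduction of bacterial viability or growth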
Streptokinase A = target: T2, Streptokinase A (Streptococcus pyogenes serotype M1, UniProt P10520); experiment: viability-normalized secreted streptokinase activity reduction – plasminogen activation absorbance, OD405, dose response (AID 1914); type: functional, Streptococcus pyogenes M1 GAS;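 also: secreted streptokinase activity via plasminogen activation per viability signal from cell pellet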
T2 sequence (P10520 whole entry): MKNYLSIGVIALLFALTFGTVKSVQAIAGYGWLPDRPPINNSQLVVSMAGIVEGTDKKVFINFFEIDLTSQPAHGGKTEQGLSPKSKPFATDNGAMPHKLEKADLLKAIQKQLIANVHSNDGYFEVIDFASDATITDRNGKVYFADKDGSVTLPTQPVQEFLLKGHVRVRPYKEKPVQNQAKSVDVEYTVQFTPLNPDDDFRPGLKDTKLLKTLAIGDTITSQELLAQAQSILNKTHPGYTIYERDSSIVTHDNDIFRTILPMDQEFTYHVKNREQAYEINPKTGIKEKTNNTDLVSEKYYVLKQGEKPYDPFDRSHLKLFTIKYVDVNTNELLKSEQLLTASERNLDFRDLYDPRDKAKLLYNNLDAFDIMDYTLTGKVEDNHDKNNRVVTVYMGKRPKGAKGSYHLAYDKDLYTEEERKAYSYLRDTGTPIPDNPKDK

[7] = test system: Streptococcus sp. 'group A'; experiment: Streptococcus pyogenes SK(-)GAS viability under kanamycin – luminescence, BacTiterGlo, confirmation, counter-screen for streptokinase expression inhibitor project, dose response (AID 1900); type: functional, organism-based
Genome polyprotein = Genome polyprotein (dengue virus type 2, UniProt P29990); experiment: flavivirus cap methylation enzyme inhibition – biochemical, confirmation dose response, primary screen (AID 588689); type: functional
Chain of Genome polyprotein (P29990 2492-3391 limits assumed): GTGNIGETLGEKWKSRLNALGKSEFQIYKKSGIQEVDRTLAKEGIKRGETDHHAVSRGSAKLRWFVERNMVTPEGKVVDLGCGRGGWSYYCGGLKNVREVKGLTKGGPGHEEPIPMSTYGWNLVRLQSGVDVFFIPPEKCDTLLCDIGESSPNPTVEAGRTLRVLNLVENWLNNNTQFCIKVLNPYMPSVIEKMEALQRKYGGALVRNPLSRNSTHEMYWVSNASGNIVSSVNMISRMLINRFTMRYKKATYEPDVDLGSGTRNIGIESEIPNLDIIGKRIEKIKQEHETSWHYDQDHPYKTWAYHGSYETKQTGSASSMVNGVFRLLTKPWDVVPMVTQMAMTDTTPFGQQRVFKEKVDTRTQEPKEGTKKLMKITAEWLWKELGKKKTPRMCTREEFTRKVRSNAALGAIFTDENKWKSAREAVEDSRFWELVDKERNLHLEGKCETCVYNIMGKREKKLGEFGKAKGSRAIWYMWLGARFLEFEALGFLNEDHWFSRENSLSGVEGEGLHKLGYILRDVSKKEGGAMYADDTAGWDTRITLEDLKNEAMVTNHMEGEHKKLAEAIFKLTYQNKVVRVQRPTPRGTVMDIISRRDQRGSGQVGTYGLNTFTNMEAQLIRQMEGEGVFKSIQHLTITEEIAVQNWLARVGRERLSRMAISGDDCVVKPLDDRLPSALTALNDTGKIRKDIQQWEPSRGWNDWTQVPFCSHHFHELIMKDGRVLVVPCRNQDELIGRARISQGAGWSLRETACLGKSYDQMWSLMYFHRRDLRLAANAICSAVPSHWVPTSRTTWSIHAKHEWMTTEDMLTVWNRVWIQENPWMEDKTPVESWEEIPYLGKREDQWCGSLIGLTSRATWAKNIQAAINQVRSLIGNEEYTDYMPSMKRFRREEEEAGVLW

[8] = target: T3, Corticotropin-releasing factor receptor 2/Corticotropin-releasing factor-binding protein (Homo sapiens, UniProt P24387+Q13324); experiment: Dose Response confirmation of uHTS hits for small molecule antagonists of the CRF-binding protein and CRF-R2 receptor complex.; type: functional; details: read-out: IC50_Mean
T3 sequence (Q13324 whole entry): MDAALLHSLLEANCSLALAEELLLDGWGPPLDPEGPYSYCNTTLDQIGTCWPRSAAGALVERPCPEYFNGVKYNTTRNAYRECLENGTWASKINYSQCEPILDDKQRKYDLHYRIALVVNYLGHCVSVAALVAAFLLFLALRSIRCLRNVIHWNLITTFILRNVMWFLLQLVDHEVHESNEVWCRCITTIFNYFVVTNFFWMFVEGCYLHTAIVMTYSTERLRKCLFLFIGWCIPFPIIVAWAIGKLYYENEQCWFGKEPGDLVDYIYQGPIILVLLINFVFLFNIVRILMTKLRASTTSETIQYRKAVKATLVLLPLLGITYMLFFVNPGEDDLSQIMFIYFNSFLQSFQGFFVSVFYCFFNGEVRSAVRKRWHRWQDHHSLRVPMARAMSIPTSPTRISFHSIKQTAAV
T3 sequence (P24387 whole entry): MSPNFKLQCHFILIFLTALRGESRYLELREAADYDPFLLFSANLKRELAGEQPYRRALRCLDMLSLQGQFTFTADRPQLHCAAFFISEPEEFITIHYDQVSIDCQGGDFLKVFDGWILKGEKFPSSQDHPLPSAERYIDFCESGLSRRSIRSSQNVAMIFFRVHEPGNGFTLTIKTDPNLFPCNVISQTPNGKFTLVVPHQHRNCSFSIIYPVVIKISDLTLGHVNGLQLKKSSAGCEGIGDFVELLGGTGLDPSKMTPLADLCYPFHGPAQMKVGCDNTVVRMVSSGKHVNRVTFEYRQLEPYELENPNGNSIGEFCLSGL

[9] = target: T3, Corticotropin-releasing factor receptor 2/Corticotropin-releasing factor-binding protein; experiment: activators of CRF receptor 2 with binding protein – uHTS hits, confirmation (AID 602473); type: functional; details: read-out: EC50_Mean
[10] = target: T4, Apoptotic protease-activating factor 1 (Homo sapiens, UniProt O14727); experiment: SAR analysis of small molecule Activators of Apaf-1 in a Fluorescent assay.; type: functional; details: read-out: EC50_Mean;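 also: caspase-3 cleavage of fluorogenic Rh110 DEVD substrate downstream of apoptosome activation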
T4 sequence (O14727 whole entry): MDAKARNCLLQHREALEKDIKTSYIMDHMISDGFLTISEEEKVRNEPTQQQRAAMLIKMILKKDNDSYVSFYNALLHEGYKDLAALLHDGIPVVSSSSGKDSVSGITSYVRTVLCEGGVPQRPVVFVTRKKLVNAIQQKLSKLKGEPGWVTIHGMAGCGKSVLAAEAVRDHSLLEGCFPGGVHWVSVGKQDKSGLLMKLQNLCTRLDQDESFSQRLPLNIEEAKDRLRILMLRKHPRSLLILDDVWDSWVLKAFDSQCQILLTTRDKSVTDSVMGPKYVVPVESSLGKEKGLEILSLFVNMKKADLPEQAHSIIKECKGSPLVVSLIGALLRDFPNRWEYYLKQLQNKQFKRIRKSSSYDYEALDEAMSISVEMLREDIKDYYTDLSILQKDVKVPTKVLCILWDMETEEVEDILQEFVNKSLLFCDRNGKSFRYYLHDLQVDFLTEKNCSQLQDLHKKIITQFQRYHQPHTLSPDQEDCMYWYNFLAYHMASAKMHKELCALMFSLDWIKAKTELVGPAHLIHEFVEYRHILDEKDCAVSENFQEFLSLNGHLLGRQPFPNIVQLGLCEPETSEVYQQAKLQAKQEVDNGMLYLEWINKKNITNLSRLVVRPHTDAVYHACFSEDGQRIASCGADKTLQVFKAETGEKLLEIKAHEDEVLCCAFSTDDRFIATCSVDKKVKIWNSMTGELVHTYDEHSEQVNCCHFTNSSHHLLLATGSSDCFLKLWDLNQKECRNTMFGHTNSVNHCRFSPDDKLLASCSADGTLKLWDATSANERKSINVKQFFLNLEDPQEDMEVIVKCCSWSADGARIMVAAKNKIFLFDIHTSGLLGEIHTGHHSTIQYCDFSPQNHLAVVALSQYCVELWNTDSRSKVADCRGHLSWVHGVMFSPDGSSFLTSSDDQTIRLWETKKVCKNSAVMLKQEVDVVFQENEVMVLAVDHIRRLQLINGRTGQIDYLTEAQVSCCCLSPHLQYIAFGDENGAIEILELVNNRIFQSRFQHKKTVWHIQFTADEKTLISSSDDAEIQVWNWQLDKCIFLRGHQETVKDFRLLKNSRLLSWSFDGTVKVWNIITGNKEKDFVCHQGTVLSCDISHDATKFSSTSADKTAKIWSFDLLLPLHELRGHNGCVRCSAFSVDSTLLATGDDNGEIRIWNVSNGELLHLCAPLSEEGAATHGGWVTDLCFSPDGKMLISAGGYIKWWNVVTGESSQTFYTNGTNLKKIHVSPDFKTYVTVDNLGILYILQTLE

[11] = target: T5, Orexin/Hypocretin receptor type 1 (Homo sapiens, UniProt O43613); experiment: (§1) Fluorescence-based cell-based high throughput dose response assay for antagonists of the orexin 1 receptor (OX1R; HCRTR1). [Related pubchem assays (depositor defined):AID434989, AID435008, AID463079, AID485270, AID492963, AID492964, AID492965, AID493232, AID504717, AID504718]; type: functional
T5 sequence (O43613 whole entry): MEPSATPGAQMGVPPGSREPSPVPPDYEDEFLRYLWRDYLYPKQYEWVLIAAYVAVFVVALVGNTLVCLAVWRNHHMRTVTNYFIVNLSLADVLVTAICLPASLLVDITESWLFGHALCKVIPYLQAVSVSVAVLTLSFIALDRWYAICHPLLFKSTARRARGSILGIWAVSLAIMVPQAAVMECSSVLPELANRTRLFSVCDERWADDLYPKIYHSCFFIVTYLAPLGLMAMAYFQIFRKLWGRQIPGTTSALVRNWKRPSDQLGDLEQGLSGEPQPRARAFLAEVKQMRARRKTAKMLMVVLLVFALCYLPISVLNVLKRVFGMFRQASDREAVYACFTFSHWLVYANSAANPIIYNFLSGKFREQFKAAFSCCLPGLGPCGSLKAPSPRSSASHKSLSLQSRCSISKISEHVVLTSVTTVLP

Orexin receptor type 2 [12] = target: T6, Orexin receptor type 2 (Homo sapiens, UniProt O43614); experiment: Counterscreen assay for antagonists of the orexin 1 receptor (OX1R; HCRTR1): Fluorescence-based cell-based dose response assay for antagonists of the orexin 2 receptor (OX2R; HCRTR2), run by assay provider.; type: functional
T6 sequence (O43614 whole entry): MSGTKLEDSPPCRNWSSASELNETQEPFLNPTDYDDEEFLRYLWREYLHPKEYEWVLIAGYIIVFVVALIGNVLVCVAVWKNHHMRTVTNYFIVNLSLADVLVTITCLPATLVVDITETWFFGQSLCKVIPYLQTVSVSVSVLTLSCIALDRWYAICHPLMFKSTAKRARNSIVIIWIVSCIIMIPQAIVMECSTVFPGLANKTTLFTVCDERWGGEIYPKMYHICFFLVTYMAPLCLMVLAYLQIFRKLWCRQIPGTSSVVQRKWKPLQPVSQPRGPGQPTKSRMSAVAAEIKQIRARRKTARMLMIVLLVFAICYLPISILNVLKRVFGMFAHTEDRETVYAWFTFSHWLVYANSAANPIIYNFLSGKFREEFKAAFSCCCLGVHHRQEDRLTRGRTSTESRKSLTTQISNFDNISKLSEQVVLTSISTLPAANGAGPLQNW

[13] = target: Induced myeloid leukemia cell differentiation protein Mcl-1 (Homo sapiens, UniProt Q07820); type: functional
Chain of Induced myeloid leukemia cell differentiation protein Mcl-1 (Q07820 whole entry): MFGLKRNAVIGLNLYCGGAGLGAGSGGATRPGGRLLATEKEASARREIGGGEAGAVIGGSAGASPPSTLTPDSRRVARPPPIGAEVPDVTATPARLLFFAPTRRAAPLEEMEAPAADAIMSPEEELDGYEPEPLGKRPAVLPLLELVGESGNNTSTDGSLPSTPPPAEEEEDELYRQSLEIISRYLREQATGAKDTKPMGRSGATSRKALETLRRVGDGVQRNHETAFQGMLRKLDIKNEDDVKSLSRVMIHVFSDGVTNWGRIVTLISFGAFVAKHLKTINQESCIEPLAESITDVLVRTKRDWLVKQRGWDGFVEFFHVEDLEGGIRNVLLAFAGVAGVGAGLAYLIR

CHO-K1 = experiment: (§2) Counterscreen for antagonists of the orexin 1 receptor (OX1R; HCRTR1): Homogeneous time resolved fluorescence (HTRF)-based cell-based dose response assay to identify antagonists of the parental CHO-K1 cell line. [Related pubchem assays (depositor defined):AID434989, AID435008, AID463079, AID485270, AID492963, AID492964, AID492965, AID493232, AID504699, AID504701]; type: functional; details: Cricetulus griseus
[14] = as §2, with “Fluorescence-based” for “Homogeneous time resolved fluorescence (HTRF)-based”, “cell-based high throughput” for “cell-based”, “CHO” for “CHO-K1”; type: functional
Orexin receptor type 2 [15] = target: T6, Orexin receptor type 2; experiment: Counterscreen assay for antagonists of the orexin 1 receptor (OX1R; HCRTR1): Homogeneous Time Resolved Fluorescence (HTRF)-based cell-based dose response assay for antagonists of the orexin 2 receptor (OX2R; HCRTR2), run by assay provider.; type: functional
[16] = target: T5, Orexin/Hypocretin receptor type 1; experiment: as §1, with “Homogeneous Time Resolved Fluorescence (HTRF)-based” for “Fluorescence-based”; type: functional

Chain of Adenosylmethionine-8-amino-7-oxononanoate aminotransferase (P9WQ81 whole entry): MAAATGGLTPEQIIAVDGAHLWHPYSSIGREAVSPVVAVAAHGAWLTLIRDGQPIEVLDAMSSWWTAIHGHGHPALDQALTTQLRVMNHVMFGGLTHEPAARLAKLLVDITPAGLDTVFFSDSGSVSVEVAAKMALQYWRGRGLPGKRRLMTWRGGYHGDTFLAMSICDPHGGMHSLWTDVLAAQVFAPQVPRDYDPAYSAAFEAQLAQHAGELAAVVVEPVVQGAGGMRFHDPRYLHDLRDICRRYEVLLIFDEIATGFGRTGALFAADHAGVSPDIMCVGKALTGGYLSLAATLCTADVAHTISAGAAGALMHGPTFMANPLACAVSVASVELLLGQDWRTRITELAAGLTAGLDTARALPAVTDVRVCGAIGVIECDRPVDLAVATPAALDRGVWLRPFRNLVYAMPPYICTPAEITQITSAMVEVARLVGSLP

O=C(Nc1ccc2snnc2c1)N1CCN(c2ccccc2)CC1
AC50 [1]: 0.0986 µM (active) | AC50 [2]: 0.913 µM (active)

Cc1nc(-c2cccnc2)sc1C(=O)Nc1cccc(C(F)(F)F)c1
AC50 [1]: 3.76 µM (active) | EC50 [3]: 15.7 µM (active) | EC50 [4]: 26.8 µM (active)

O=C(O)CN1C(=O)/C(=C\c2cc(Br)ccc2OCc2ccc(Cl)cc2)SC1=S
IC50 (Phospholipase A2): 4.68 µM (active) | IC50 (Cysteine protease ATG4B): 7.13 µM (active) | CC50 [5]: 14.9 µM (active) | IC50 [6]: 7.36 µM (active) | EC50 (Streptococcus): 3.08 µM (active) | EC50 (Streptokinase A): > 50 µM (not active) | EC50 [7]: 1.58 µM (active) | AC50 [2]: 1.58 µM (active) | IC50 (Genome polyprotein): 24.8 µM (active)

COc1ccc(/C=C2\CCc3ccccc3C2=O)c(OC)c1OC
IC50 (Phospholipase A2): 31.7 µM (inactive) | IC50 (Cysteine protease ATG4B): 38.6 µM (inactive) | IC50 [8]: > 47.1 µM (inactive) | EC50 [9]: > 53 µM (inactive)

COc1ccc(N2C(=O)CC3(CC(c4ccccc4F)=NO3)C2=O)cc1 (configuration not stated)
EC50 [10]: > 100 µM (inactive)

O=C(C1CC(c2ccc(F)cc2)=NO1)N1CCCc2ccccc21 (configuration not stated)
EC50 [10]: > 100 µM (inactive)

Sc1nnc(-c2cc(-c3ccccc3)[nH]n2)n1/N=C/c1c2ccccc2cc2ccccc12
IC50 [11]: 23.7 µM (inactive) | IC50 (Orexin receptor type 2 [12]): > 88.8 µM (inactive) | IC50 [13]: 6.05 µM (not active) | IC50 (CHO-K1): > 66.2 µM (inactive) | IC50 [14]: > 49.8 µM (inactive) | IC50 (Orexin receptor type 2 [15]): > 50 µM (inactive) | IC50 [16]: 0.585 µM (active)

From ChEMBL document CHEMBL1201862, “PubChem BioAssay data set” (2004)
